Experimental data reported in patent publication US10010076B2, “Plant control composition containing peptide enhancing agent” (Arch Chemicals, Inc., priority 2013, dated 2018).

Tests used:
Aphanizomenon sp. = assay: Toxicity experiment on algae in Morrison Lake site water, cell density of Aphanizomenon sp.; assay type: cell-based
Method: (§1) Five formulations were prepared and tested. The formulations included various pesticides used singularly, a protein surfactant blend used singularly, and pesticides used in combination with a protein surfactant blend. The tests were conducted on cyanophyta (blue-green algae) sampled from Morrison Lake located in Ionia County, Mich. The properties that were tested included the chlorophyll-a concentrations, cell densities, visual observations, and partial application label rates of chelated elemental copper and sodium carbonate peroxyhydrate. The initial chlorophyll-a concentration was determined to be 27.4 μg chlorophyll a/L. The initial water characteristics are listed in table 1. […]
(§2) The formulation tested was sodium carbonate peroxyhydrate and the exposure period was 10 days.
(§3) The algae were exposed to three concentrations in 500 mL flasks. The experiments were initiated using 300 mL of site water. The toxicity experiment was initiated by exposing the algae to 7.4, 22.1, and 36.9 mg sodium carbonate peroxyhydrate/L. Three replicates of each exposure concentration, along with three replicates of untreated controls, were tested. […]

[1] = test system: cyanophyta (blue-green algae); assay: Toxicity experiment on algae in Morrison Lake site water (chlorophyll-a, visual observations, total algae cell density); assay type: cell-based
Method: as §1, §2, §3

Anabaena sp. = assay: Toxicity experiment on algae in Morrison Lake site water, cell density of Anabaena sp.; assay type: cell-based
Method: as §1, §2, §3

Eurasian watermilfoil = Eurasian watermilfoil aquaria trial, biomass 4 weeks after treatment; conditions: 8 hr exposure

O=C([O-])[O-].O=C([O-])[O-].OO.OO.OO.[Na+].[Na+].[Na+].[Na+] [Sodium Carbonate Peroxyhydrate, sodium carbonate peroxyhydrate]
Avg. Day 4 Cell Density, Aphanizomenon sp. (Aphanizomenon sp.; 7.4 mg/L (20 lbs/acre-ft)): 1.1 × 10^3 cells/mL | Avg. Day 10 Cell Density, Aphanizomenon sp. (Aphanizomenon sp.; 7.4 mg/L (20 lbs/acre-ft)): 2.8 × 10^4 cells of/mL | Avg. Day 4 Cell Density, Aphanizomenon sp. (Aphanizomenon sp.; 22.1 mg/L (60 lbs/acre-ft)): 6.5 × 10^4 cells/mL | Avg. Day 4 Chlorophyll-a ([1]; 7.4 mg/L (20 lbs/acre-ft)): 22.5 µg/L | Avg. Day 10 Chlorophyll-a ([1]; 7.4 mg/L (20 lbs/acre-ft)): 8.6 µg/L | Avg. Day 4 Chlorophyll-a ([1]; 22.1 mg/L (60 lbs/acre-ft)): 12.5 µg/L | Avg. Day 10 Cell Density, Total algae ([1]; 22.1 mg/L (60 lbs/acre-ft)): <1 × 10^3 cells of/mL | Avg. Day 10 Chlorophyll-a ([1]; 22.1 mg/L (60 lbs/acre-ft)): 2.7 µg/L | Avg. Day 4 Cell Density, Total algae ([1]; 36.9 mg/L (100 lbs/acre-ft)): <1 × 10^3 cells/mL | Avg. Day 4 Chlorophyll-a ([1]; 36.9 mg/L (100 lbs/acre-ft)): 7.9 µg/L | Avg. Day 10 Cell Density, Total algae ([1]; 36.9 mg/L (100 lbs/acre-ft)): <1 × 10^3 cells of/mL | Avg. Day 10 Chlorophyll-a ([1]; 36.9 mg/L (100 lbs/acre-ft)): <2 µg/L | concentration of sodium carbonate peroxyhydrate needed for algae control ([1]; sodium carbonate peroxyhydrate applied alone): 22.7 ppm | Avg. Day 4 Cell Density, Anabaena sp. (Anabaena sp.; 7.4 mg/L (20 lbs/acre-ft)): 8.9 × 10^4 cells/mL | Avg. Day 10 Cell Density, Anabaena sp. (Anabaena sp.; 7.4 mg/L (20 lbs/acre-ft)): 4.1 × 10^4 cells of/mL | Avg. Day 4 Cell Density, Anabaena sp. (Anabaena sp.; 22.1 mg/L (60 lbs/acre-ft)): 1.8 × 10^4 cells/mL

CCOC(=O)C(Cl)Cc1cc(-n2nc(C)n(C(F)F)c2=O)c(F)cc1Cl (stereo not shown) [Carfentrazone-ethyl, Ethyl 2-chloro-3-[2-chloro-4-fluoro-5-[4-(difluoromethyl)-4,5-dihydro-3-methyl-5-oxo-1H-1,2,4-trizol-1-yl)phenyl]propanoate]
regrowth of Eurasian watermilfoil (Eurasian watermilfoil; 0.1 mg ai/L, 2 WAT): regrowth was noted | injury to Eurasian watermilfoil (Eurasian watermilfoil; 0.1 mg ai/L, initial): initial injury observed | reducing Eurasian watermilfoil biomass (Eurasian watermilfoil; 0.2 mg ai/L, 4 WAT): effective at reducing Eurasian watermilfoil biomass
